Measurements taken from patent publication US7781479B2, “Heteroaryl derivatives” (Dainippon Sumitomo Pharma Co., Ltd., priority 2005, dated 2010).

target: T1, human PPARα ligand binding domain fused to GAL4 DNA binding domain (Homo sapiens, UniProt Q07869); experiment: GAL4-PPARα luciferase reporter assay in COS-1 cells; assay type: cell-based; details: relative luciferase activity, vehicle (DMSO) control regarded as 1, 24 hours
T1 construct: human PPARα (including amino acid residues 167-468); expressed in transfected cells; host or cells: COS-1 cells
T1 sequence (Q07869 167-468): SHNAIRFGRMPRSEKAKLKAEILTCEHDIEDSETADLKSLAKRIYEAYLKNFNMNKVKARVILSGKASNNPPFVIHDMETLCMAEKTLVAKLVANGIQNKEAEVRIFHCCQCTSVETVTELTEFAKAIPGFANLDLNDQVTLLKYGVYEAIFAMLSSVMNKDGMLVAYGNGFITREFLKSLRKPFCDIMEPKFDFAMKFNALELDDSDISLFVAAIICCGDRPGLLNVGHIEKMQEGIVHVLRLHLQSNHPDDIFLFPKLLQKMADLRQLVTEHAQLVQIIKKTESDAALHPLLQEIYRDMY
Excerpt: (§1) Evaluation of PPAR α or γ Agonistic Activity
(§2) Construction of Reporter Plasmid
(§3) By inserting a gene fragment encoding the ligand binding domain of human PPARα (including amino acid residues 167-468) or a gene fragment encoding the ligand binding domain of human PPARγ (including amino acids residue 204-505) into a multicloning site of expressing vector pM containing DNA binding domain of yeast GAL4 protein (Clonetech), a vector plasmid for expressing a fused protein of GAL4 protein DNA binding domain and human PPARα or γ ligand binding domain was obtained.
(§4) As a reporter plasmid, pGL3-Basic Vector containing firefly luciferase gene (Promega Corporation) was used wherein Gal 4-responsive sequence UAS and rabbit β-globin promoter were inserted.
(§5) For the correction of transformation efficiency, a plasmid pβgal control (Clonetech) containing lacZ gene, was used.
COS-1 cells were cultured in the phenol red free Dulbecco's Modified Eagles Medium (DMEM) (Gibco) supplemented with 5% activated charcoal/dextran stripped fetal bovine serum at 37° C. with 5% carbon dioxide. […] The luciferase activity therein was measured by a luminometer using the reagent for measuring luciferase which was also accompanied to said System.
The PPARα- or γ-agonistic activity was expressed as a relative activity where the luciferase activity in the well to which the vehicle (DMSO) was added as control was regarded as 1. […]

Cc1ccc(C(=O)c2c(C)n(-c3ccc(COC4(C(=O)O)CCC4)cc3)c3ccccc23)cc1 [Example 86, 1-({4-[2-Methyl-3-(4-methylbenzoyl)-1H-indol-1-yl]benzyl}oxy)cyclobutane carboxylic acid] was tested, and the “PPARα-agonistic activity (10 μM)” value was 1.3.

target: T2, human PPARγ ligand binding domain fused to GAL4 DNA binding domain (Homo sapiens, UniProt P37231); experiment: GAL4-PPARγ luciferase reporter assay in COS-1 cells; assay type: cell-based; details: 10 μM, relative luciferase activity, vehicle (DMSO) control regarded as 1, 24 hours
T2 construct: human PPARγ (including amino acids residue 204-505); expressed in transfected cells; host or cells: COS-1 cells
T2 sequence (P37231 204-505): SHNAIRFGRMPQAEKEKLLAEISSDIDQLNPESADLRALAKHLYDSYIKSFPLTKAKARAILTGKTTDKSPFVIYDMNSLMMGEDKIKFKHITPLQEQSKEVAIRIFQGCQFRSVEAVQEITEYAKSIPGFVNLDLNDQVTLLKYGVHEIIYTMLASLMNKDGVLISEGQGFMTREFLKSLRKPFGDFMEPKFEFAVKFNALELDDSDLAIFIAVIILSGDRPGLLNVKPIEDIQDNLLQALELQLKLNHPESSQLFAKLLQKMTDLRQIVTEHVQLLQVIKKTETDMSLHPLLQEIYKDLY
Excerpt: as §1, §2, §3, §4, §5
COS-1 cells were cultured in the phenol red free Dulbecco's Modified Eagles Medium (DMEM) (Gibco) supplemented with 5% activated charcoal/dextran stripped fetal bovine serum at 37° C. with 5% carbon dioxide. The COS-1 cells were plated at a concentration of 5×10^4 cells/well into a 24-well plate, and were incubated overnight. The medium was replaced with a fresh medium supplemented […] 5% activated charcoal/dextran treated fetal bovine serum. Further, the cells were transfected using Lipofectamine plus reagent (Gibco) with plasmids GAL4-PPARα- or γ-expressing plasmid (5 ng), the reporter plasmid (50 ng), and pβgal control (350 ng) per well. After incubation for 4 hours, the medium was changed with a fresh medium supplemented with 5% activated charcoal/dextran treated fetal bovine serum. Then, the compound of the present invention was added thereto in such an amount that the final concentration thereof is 0.1 μM, 0.3 μM, 1 μM, 3 μM or 10 μM. After the cultivation for 24 hours, the cells were lysed with a solution for cell lysis accompanied to the Luciferase Assay System (Promega Corporation). The luciferase activity therein was measured by a luminometer using the reagent for measuring luciferase which was also accompanied to said System.
The PPARα- or γ-agonistic activity was expressed as a relative activity where the luciferase activity in the well to which the vehicle (DMSO) was added as control was regarded as 1. The PPARα-agonistic activity and the PPARγ-agonistic activity at each 10 μM, and the maximum PPARγ-agonistic activity (%) of the compound of the present invention per the maximum PPARγ-agonistic activity (100%) of pioglitazone are shown in the following Table 1.

In the case of Cc1ccc(C(=O)c2c(C)n(-c3ccc(COC4(C(=O)O)CCC4)cc3)c3ccccc23)cc1 [Example 86, 1-({4-[2-Methyl-3-(4-methylbenzoyl)-1H-indol-1-yl]benzyl}oxy)cyclobutane carboxylic acid], the “PPARγ-agonistic activity (10 μM)” value is reported as 2.8.

same assay, conditions: maximum PPARγ-agonistic activity per the maximum PPARγ-agonistic activity (100%) of pioglitazone

Point of comparison: COc1ccc2c(C(=O)c3ccc(C)cc3)c(C)n(Cc3ccc(/C=C/COC(C)(C)C(=O)O)cc3)c2c1 [Compound 81], Emax 42%. Against it:
- Cc1ccc(C(=O)c2cccn2C/C=C\c2ccc(COC(C)(C)C(=O)O)cc2)cc1 [Compound 1] — higher, 51%
- Cc1ccc(C(=O)c2c(C)n(C/C=C/c3ccc(COC(C)(C)C(=O)O)cc3)c3ncccc23)cc1 [Compound 20] — higher, 68%
- Cc1ccc(C(=O)c2ccn(C/C=C/c3ccc(CO[C@H](C)C(=O)O)cc3)n2)cc1 [Compound 21] — higher, 71%
- Cc1ccc(C(=O)c2nn(C/C=C/c3ccc(COC(C)(C)C(=O)O)cc3)c3ccccc23)cc1 [Compound 35] — higher, 57%
- COc1ccc2c(C(=O)c3ccc(C)cc3)c(C)n(Cc3ccc(CO[C@H](C)C(=O)O)cc3)c2c1 [Compound 46] — lower, 26%
- COc1ccc2c(C(=O)c3ccc(C)cc3)c(C)n(Cc3cccc(CO[C@H](C)C(=O)O)c3)c2c1 [Compound 54] — lower, 39%
- Cc1ccc(C(=O)c2c(C)n(Cc3cccc(CO[C@H](C)C(=O)O)c3)c3ncccc23)cc1 [Compound 59] — lower, 41%
- Cc1ccc(C(=O)c2cccn2Cc2ccc(/C=C/CO[C@H](C)C(=O)O)cc2)cc1 [Compound 68] — higher, 71%
- Cc1ccc(C(=O)c2c(C)n(Cc3ccc(/C=C/COC(C)(C)C(=O)O)cc3)c3ccccc23)cc1 [Compound 79] — lower, 35%
- Cc1ccc(C(=O)c2c(C)c3ccc(C(F)(F)F)cc3n2Cc2ccc(/C=C/COC(C)(C)C(=O)O)cc2)cc1 [Compound 83] — lower, 13%
- Cc1ccc(C(=O)c2c(C)n(-c3ccc(COC4(C(=O)O)CCC4)cc3)c3ccccc23)cc1 [Example 86, 1-({4-[2-Methyl-3-(4-methylbenzoyl)-1H-indol-1-yl]benzyl}oxy)cyclobutane carboxylic acid] — lower, 20%

tested on: male db/db mice; experiment: Hypoglycemic activity in db/db mice (blood glucose level); assay type: in vivo; details: 30 mg/kg orally once a day for 2 weeks, blood glucose level on the last day
Protocol: The test compounds as disclosed in Examples were dissolved or suspended in a 0.5% carbomethyl cellulose solution, and orally administered to male db/db mice (7 to 8 weeks old) at a final dose of 30 mg/kg once a day for 2 weeks. On the last day, the blood was taken at the tail vein, and immediately thereafter, perchloric acid was added for removing proteins, and the blood glucose level was measured by Glucolse CII Test Wako (Wako Pure Industries, Ltd.).
The hypoglycemic activity was calculated by the following equation.

Point of comparison: Cc1ccc(C(=O)c2nn(C/C=C/c3ccc(COC(C)(C)C(=O)O)cc3)c3ccccc23)cc1 [Example 35, 2-Methyl-2-[(4-{(1E)-3-[3-(4-methylbenzoyl)-1H-indazol-1-yl]prop-1-en-1-yl}benzyl)oxy]propanoic acid], “Hypoglycemic Activity (%)” value 27.3%. Against it:
- Cc1ccc(C(=O)c2c(C)n(C/C=C/c3ccc(COC(C)(C)C(=O)O)cc3)c3ncccc23)cc1 [Example 20, 2-Methyl-2-[(4-{(1E)-3-[2-Methyl-3-(4-methylbenzoyl)-1H-pyrrolo[2,3-b]pyridin-1-yl]prop-1-en-1-yl}benzyl)oxy]propionic acid] — higher, 50.4%
- Cc1ccc(C(=O)c2nn(/C=C/c3ccc(CO[C@H](C)C(=O)O)cc3)c3ccccc23)cc1 [Example 34, (2R)-2-[(4-{(E)-2-[3-(4-Methylbenzoyl)-1H-indazol-1-yl]vinyl}benzyl)oxy]propanoic acid] — higher, 47.4%
- COc1ccc2c(C(=O)c3ccc(C)cc3)c(C)n(Cc3cccc(CO[C@H](C)C(=O)O)c3)c2c1 [Example 54, (2R)-2-[(3-{[6-Methoxy-2-methyl-3-(4-methylbenzoyl)-1H-indol-1-yl]methyl-}benzyl)oxy]propionic acid] — higher, 47.7%
